Test results published in patent EP1100821B1, “ANTI-INFLAMMATORY COMPOUNDS DERIVED FROM LIPOCORTIN-1” (priority 1998, dated 2006).
No end group written: not given here.

Experiments:
PMN migration = assay type: in vivo; conditions: peptide s.c. 30 min prior to 1 mg zymosan into 6-day-old air-pouches; PMN counted 4 h after zymosan; n=15; P<0.01
Procedure: Male Swiss Albino mice (20-22 g body weight) were purchased from Interfauna (CFLP strain; Huntingdon, Cambridgeshire, UK) and maintained on a standard chow pellet diet with tap water ad libitum. Animals were used at least one week after arrival.
Air-pouches were formed on the back of the mice by subcutaneous (s.c.) injection of 2.5 ml of air on day 2 and day 5. Three days after the last air-injection (6-day-old air-pouches) 1 mg of zymosan (in 0.5 ml of sterile saline) was injected locally (Perretti et al., 1996). Zymosan was previously boiled for 30 min in phosphate buffered solution (PBS), extensively washed in the same medium and stored at -20°C prior to use.
Four hours after the local injection of zymosan, mice were killed by CO2 exposure and the air-pouches washed with 2 ml of PBS containing ethylenediaminetetracetic acid sodium salt (EDTA; 3 mM) and heparin (25 U/ml). […] The number of PMN was determined, using a Neubauer haematocytometer, after staining (1:10 dilution) with Turk's solution (crystal violet 0.01 % w/v in acetic acid 3% v/v).
Control mice were treated with sterile PBS (100 µl s.c.).

A549 cell line = conditions: in vitro A549 model; previous publications (Croxtall et al., 1993, 1998); cited from earlier work

Substance	Approximate ED50s (inhibition of PMN migration) (PMN migration) [nmol]	inhibitory effect on A549 cell function (A549 cell line)
Ac-AMVSEFLKQAW [LC12-12, Ac-AMVSEFLKQAW]	~110	–
EQEYVQTV [LC118-25]	–	significant inhibitory activity
LC11-12: lipocortin 1 N-terminal fragment, residues 1-12, from previous publications (MAMVSEFLKQAW; UniProt P04083 1-12, looked up, fragment)	–	inactive
